Here are results for two compounds from patent publication US20250171744A1, “METHODS OF REPROGRAMMING SOMATIC CELLS AND MATERIALS RELATED THERETO” (CITY OF HOPE, priority 2019, published 2025).

Entries after “also recorded” stand apart in the source; their conditions may differ.

Test [1] has as its system HF57 cells. Briefly: qRT-PCR relative transcript levels (FIG. 21B, FIG. 32). Conditions: for transcripts level of DNMT1 / transcripts level of MTHFR / transcripts level of MTR / relative transcripts level of Nanog / relative transcripts level of Oct4 / relative transcripts level of Sox2: FIG. 21B; for relative transcripts level of Nanog / relative transcripts level of Oct4 / relative transcripts level of Sox2: vs control cells. It counts as cell-based, human. On the procedure: Also, the cells were treated with PTX for 2-days only. Since exposure time of PTX or MTX is very critical for gene expression or other genetic changes, the expression of ANOS could be higher after prolonged exposure to PTX.
(§1) To validate microarray results, quantitative 2-step RT-PCR was performed. One microgram of total RNA was reverse transcribed to first-strand cDNA with the Qiagen cDNA Synthesis Kit (Qiagen), and this cDNA was subsequently used as a template for quantitative PCR with gene-specific primers. The ubiquitous β-actin gene served as a control for constitutive gene expression. The quantitative RT-PCR (qRT-PCR) reactions were performed using Power Sybr Green PCR Master Mix (Thermo Fisher Scientific) on a CFX96 Touch Real-Time PCR Detection System (Bio-Rad, Hercules, CA, USA). Relative expression levels (2^−ΔCt) were calculated according to the Livak and Schmittgen method (40). Expression levels of each gene were compared with the expression level of actin.
(§2) The quiescent nature of the MTX and PTX cells and the association of demethylation with the generation of induced pluripotent stem cells led to examining markers for stem cells formation. The 293T and HF57 cells were grown on 5% dialyzed FBS DMEM medium. DMEM without methionine, DMEM with 15 mg/L (half dose) and DMEM with 30 mg/L (regular DMEM) were used to grow the cells. Once the cells attained 70% confluency, HF57 were treated with 1-μM MTX or PTX and HEK293T were treated with 500 nM MTX or 1 μM PTX. The cells were treated with MTX or PTX for 7-days, and subsequently the medium was replaced with N2B27 medium (Thermo Fisher Scientific, USA). The cells were grown in N2B27 medium for 15 days which supported undifferentiated growth of human embryonic stem cells. Subsequently, these cells were maintained in MTeSR medium supplemented with sodium hypoxanthine and thymidine (HT) for 15 or more days. These conditions supported prolonged self-renewal of putative pluripotent cells, and they were able to form colonies and later embryoid bodies in vitro. Subsequently, the cells were assessed for markers linked to stem cells. Transcriptomics and qRT-PCR were performed to examine whether ES cell marker genes were expressed in these cells. Both MTX and PTX treated cells expressed the marker genes (FIGS. 20-21 and 25-26). […] To authenticate these findings, two key pluripotency markers (SSEA-4 and TRA 1-60) were examined using immunofluorescence.
In general terms: Real-time PCR tracks product formation cycle by cycle.

Test [2] relates to human fibroblast (HF57) cells. Briefly: Immunofluorescence of pluripotency surface markers (FIG. 25, 26). It is filed as cell-based. Conditions: for SSEA-4 and TRA 1-60 surface markers immunofluorescence: 1 μM for 7 days, DMEM with low methionine (15 mg/L). As for the experimental part:
Post MTX treatment, the cells were labeled using primary antibodies (ant-SSEA4-anti mouse IgG3) followed by secondary antibodies conjugated to Alexa Fluor 488 goat anti-mouse IgG3. The cells were counterstained with DAPI. […] The cells were grown in regular DMEM medium with or without MTX. Scale Bar=400 μM.
Post MTX treatment, the cells were labeled using primary antibodies (anti-SSEA4-anti mouse IgG3 and anti-TRA 1-60 host-rabbit) followed by secondary antibodies conjugated to (Alexa Fluor 488 goat anti-mouse IgG3 and Alexa Fluor 594 donkey anti-rabbit). The cells were counterstained with DAPI. […] The cells were grown in DMEM medium with low methionine (15 mg/L). Scale Bar=400 μM (FIG. 26A); Scale Bar=200 μM (FIG. 26B).
Immunofluorescence analysis: The relative optimal image-based analysis of 2 key human pluripotent stem cells markers [octamer-binding transcription factor 4 (OCT4) and stage-specific embryonic antigen 4 (SSEA4)] was performed using the Pluripotent Stem Cell Immunocytochemistry Kit (Thermo Fisher Scientific) according to the manufacturer's instructions. Briefly, the cells were grown in 10% FBS DMEM supplemented with NEAAs and Glutamax in wells coated with 0.1% gelatin. For immunofluorescence localization, the cells were stained for SSEA4 and Oct4 and counterstained with DAPI using the kit (Thermo Fisher Scientific). The endogenous proteins were labeled using primary antibodies (anti-SSEA4 anti-mouse IgG3 and anti-OCT4 host-rabbit) followed by secondary antibodies conjugated to Alexa Fluor 488 goat anti-mouse IgG3 and Alexa Fluor 594 donkey anti-rabbit.
The quiescent nature of the MTX and PTX cells and the association of demethylation with the generation of induced pluripotent stem cells led to examining markers for stem cells formation. The 293T and HF57 cells were grown on 5% dialyzed FBS DMEM medium. DMEM without methionine, DMEM with 15 mg/L (half dose) and DMEM with 30 mg/L (regular DMEM) were used to grow the cells. […] Subsequently, the cells were assessed for markers linked to stem cells. […]

Test [3] deals with 293T cells. As to the kind of experiment: Embryoid body formation from SSEA4 positive sorted cells (FIG. 27). It counts as cell-based, human. On the procedure:
(§3) HEK293T and HF57 were treated with MTX and PTX for 7 or more days in low methionine condition. SSEA4 positive cells were sorted using cell sorter and maintained on mTeSR™ Plus medium supplemented with HT.
293T cells were treated with MTX and/or PTX for 10 or more days. SSEA4 positive cells were sorted using single cell sorter and maintained on mTeSR1 medium. […] FIGS. 28-29 show the three-germ layer immunostaining of putative pluripotent stem cells derived from 293T cells treated with MTX and PTX.

The next test has as its system HF57. The test is described as above. It counts as cell-based, human. The note with it: treated 7 or more days, low methionine, mTeSR Plus + HT, after 15-days. As for the experimental part:
as §3

For test [4], the system named is HF57 cells. Briefly: Transcriptomics (RNAseq) of MTX and PTX treated cells (FIG. 20). The note with it: for pluripotency markers significantly enriched: compared to controls. It counts as cell-based, human.
Text: RNAseq data validated that application of MTX and PTX affected C1 metabolism in the treated cells. […] The global transcriptional change across the groups compared was visualized by a volcano plot (FIGS. 20A-20B). Each data point in the scatter plot represents a gene. The log 2 fold change of each gene is represented on the x-axis and the log 10 of its adjusted p-value is on the y-axis. Genes with an adjusted p-value less than 0.05 and a log 2 fold change greater than 1 are indicated by red dots. […] Genes with an adjusted p-value less than 0.05 and a log 2 fold change less than −1 are indicated by green dots. […] Heat map visualization of the selected 67 differentially expressed genes. Original values are ln(x)-transformed. Rows are centered; unit variance scaling is applied to rows. Red indicates higher expression, whereas low expression indicated in green (FIG. 20C). For visual clarity, expression of selected genes is presented in groups based on their relative values (FIG. 20D).
as §2

The test system of test [5] is 293T cells. As to the kind of experiment: qRT-PCR relative transcript levels of ANKRD1 and ANOS (FIG. 22, 23). It counts as cell-based, human. The note with it: vs control cells. As for the experimental part:
as §1

[6] abbreviates: treated 7 or more days, low methionine, mTeSR Plus + HT, after 15-days.
Setting [7] is: treated 10 or more days, mTeSR1 medium, after 10-days.

Consider `CN(Cc1cnc2nc(N)nc(N)c2n1)c1ccc(C(=O)N[C@@H](CCC(=O)O)C(=O)O)cc1` [MTX, methotrexate], for which, in the test on HF57 cells [1], the “transcripts level of DNMT1” value is given as “significantly reduced”, the “transcripts level of MTHFR” value was “significantly reduced”, the “transcripts level of MTR” value is recorded as “significantly reduced” and the “relative transcripts level of Nanog” value is listed as “significantly higher”. Further, in the test on HF57 cells [1], the “relative transcripts level of Oct4” value is “significantly higher” and the “relative transcripts level of Sox2” value is reported as “significantly higher”. Also, in test [2] (1 μM for 9-days, regular DMEM, no signals in control cells), the “SSEA-4 surface antigen immunofluorescence” value is recorded as “expression of SSEA-4 surface antigens”. In addition, the “SSEA-4 and TRA 1-60 surface markers immunofluorescence” value in test [2] is “high levels of SSEA-4 and TRA 1-60; also recorded: expression of SSEA-4 and TRA 1-60 surface antigens”. The embryoid body formation entry in the test with 293T cells [3] (setting [6]) is listed as “formed embryoid bodies”. The embryoid body formation entry in the test on 293T cells [3] (setting [7]) was “started forming embryoid bodies”. In addition, the embryoid body formation result in the test on HF57 is on record as “start forming embryoid bodies”. In the test on HF57 cells [4], the “LIN28A enrichment compared to controls” value is recorded as 6 fold; the “NANOG enrichment compared to controls” value is reported as 6 fold; the “SOX2 enrichment compared to controls” value came to 5 fold; the “one carbon-metabolism and DNA methylation related genes significantly down-regulated” value is reported as “about 41 genes”. In addition, in the test on HF57 cells [4], the “one carbon-metabolism and DNA methylation related genes upregulated” value is given as 9 genes; the “pluripotency markers significantly enriched” value was “about 50”. Further, in the test on 293T cells [5], the “relative transcripts level of ANOS” value is “significantly higher” and the “relative transcripts level of Ankyrin repeat domain 1 (ANKRD1)” value is “significantly higher”.

`Nc1nc2[nH]cc(CCc3ccc(C(=O)N[C@@H](CCC(=O)O)C(=O)O)cc3)c2c(=O)[nH]1` [PTX, pemetrexed]: in the test on HF57 cells [1], the “transcripts level of DNMT1” value is listed as “significantly reduced”, the “transcripts level of MTHFR” value is reported as “significantly reduced”, the “transcripts level of MTR” value was “significantly reduced” and the “relative transcripts level of Nanog” value is listed as “significantly higher”. Also, in the test with HF57 cells [1], the “relative transcripts level of Oct4” value is on record as “significantly higher” and the “relative transcripts level of Sox2” value is on record as “significantly higher”. In the test on HF57 cells [1] (treated for 2-days), the “expression of ANKRD1” value is listed as “significantly higher than control” and the “expression of ANOS” value is “significantly higher than control”. Besides, in test [2], the “SSEA-4 and TRA 1-60 surface markers immunofluorescence” value was “expression of SSEA-4 and TRA 1-60 surface markers”. For the same compound, the embryoid body formation result in the test with 293T cells [3] (setting [6]) is on record as “formed embryoid bodies”. Besides, the embryoid body formation entry in the test on 293T cells [3] (setting [7]) is “started forming embryoid bodies”. Further, in the test on HF57, the embryoid body formation result was “start forming embryoid bodies”. Besides, in the test with HF57 cells [4], the “LIN28A enrichment compared to controls” value turned out to be 6 fold; the “NANOG enrichment compared to controls” value stood at 6 fold; the “SOX2 enrichment compared to controls” value turned out to be 5 fold; the “one carbon-metabolism and DNA methylation related genes significantly down-regulated” value was “about 41 genes”. In addition, in the test on HF57 cells [4], the “one carbon-metabolism and DNA methylation related genes upregulated” value is 9 genes; the “pluripotency markers significantly enriched” value is given as “about 50”. In addition, in the test with 293T cells [5], the “relative transcripts level of ANOS” value is listed as “significantly higher” and the “relative transcripts level of Ankyrin repeat domain 1 (ANKRD1)” value is listed as “significantly higher”.
